The results in this text go back to patent US20180305332A1, “Bispiperidinyl Derivatives as Liver X Receptor Beta Agonists, Compositions, and Their Use” (Merck Sharp & Dohme Corp., priority 2015, published 2018).

SMILES strings stand for the structures. pEC50: −log10 of the molar value.

For assay [1], the target named is T1, GST tagged LXRalpha LBD (ligand binding domain) (Homo sapiens, UniProt Q13133).
T1 construct: purchased Invitrogen pv4655
T1 sequence (Q13133 209-447 limits assumed): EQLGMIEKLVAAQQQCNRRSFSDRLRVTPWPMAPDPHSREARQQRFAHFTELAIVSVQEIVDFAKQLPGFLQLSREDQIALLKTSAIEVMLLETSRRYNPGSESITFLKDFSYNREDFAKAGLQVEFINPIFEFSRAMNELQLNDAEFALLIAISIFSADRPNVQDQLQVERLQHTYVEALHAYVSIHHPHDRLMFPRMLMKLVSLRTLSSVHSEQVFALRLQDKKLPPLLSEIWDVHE
As to the kind of experiment: LanthaScreen TR-FRET Liver X Receptor Coactivator Assay, LXR alpha-LBD. Type of assay: biochemical. Conditions: relative to reference T0901317; for pEC50 / LXR alpha IP (nM): Inflection Point (potency), co-activator recruitment; for pEC50: read-out: LXR alpha IP; for Emax: activity at max dose (efficacy), read-out: LXR alpha act @ max dose (%). The essentials: (§1)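 Compound-induced coactivator recruitment measured by TR-FRET between a terbium anti-GST antibody bound to the GST-LBD (LXRα or LXRβ, human) and a fluorescein coactivator peptide, after incubation at room temperature. Potency (inflection point) and efficacy (Emax) referenced to T0901317.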
(Time-resolved FRET reads energy transfer from a long-lived donor to a nearby acceptor.)

Assay [2] concerns the target T2, GST tagged LXRbeta LBD (ligand binding domain) (Homo sapiens, UniProt P55055).
T2 construct: purchased Invitrogen pv4658.pps
T2 sequence (P55055 222-460 limits assumed): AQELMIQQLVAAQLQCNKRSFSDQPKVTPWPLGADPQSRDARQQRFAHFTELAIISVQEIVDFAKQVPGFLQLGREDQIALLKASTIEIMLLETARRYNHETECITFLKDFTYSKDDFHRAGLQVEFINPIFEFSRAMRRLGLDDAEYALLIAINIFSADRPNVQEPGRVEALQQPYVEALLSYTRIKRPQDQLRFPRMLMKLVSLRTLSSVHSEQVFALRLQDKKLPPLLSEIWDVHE
As to the kind of experiment: LanthaScreen TR-FRET Liver X Receptor Coactivator Assay, LXR beta-LBD. Conditions: relative to reference T0901317; for pEC50: Inflection Point (potency), co-activator recruitment, read-out: LXR beta IP; for Emax: read-out: LXR beta act @ max dose (%). It is filed as biochemical. The essentials:
as §1

Where [3] appears, read: activity at max dose (efficacy).

With `CN(C)C(=O)c1ccc(N2CCC(C3CCN(C(=O)C(O)(c4ccccc4)C4CC4)CC3)CC2)cc1Cl` (stereo not shown) [Example A-52, 2-chloro-4-{1′-[cyclopropyl(hydroxy)phenylacetyl]-4,4′-bipiperidin-1-yl}-N,N-dimethylbenzamide], the pEC50 in assay [1] is 5.69; in assay [2], 6.77. For the same compound, the values for the Emax in assay [1] and in assay [2] (setting [3]) were 22% and 96%, respectively.

In the case of `CN(C)C(=O)c1ccc(N2CCC(C3CCN(C(=O)C(O)(C(C)(C)C)C(F)(F)F)CC3)CC2)cc1Cl` (single isomer, unassigned) [Example A-6, 2-Chloro-4-(1′-(2-hydroxy-3,3-dimethyl-2-(trifluoromethyl)butanoyl)-[4,4′-bipiperidin]-1-yl)-N,N-dimethylbenzamide], the values for the pEC50 in assay [1] and in assay [2] were 6.20 and 7.62, respectively. Further, the Emax in assay [1] amounted to 70%; in assay [2] (setting [3]), 107%.

`CC(C)(C)OC(=O)N1CCC(C2CCN(c3ccc(S(C)(=O)=O)c(Cl)c3)CC2)CC1` [Example D-9, tert-butyl 1′-[3-chloro-4-(methylsulfonyl)phenyl]-4,4′-bipiperidine-1-carboxylate]: the results for the pEC50 in assay [1] and in assay [2] were 6.09 and 6.91, respectively. Moreover, the values for the Emax in assay [1] and in assay [2] (setting [3]) were 41% and 81%, respectively.

For the compound `O=C(c1ccc(N2CCC(C3CCN(C(=O)[C@](O)(c4ccccc4)C(F)(F)F)CC3)CC2)cc1Cl)N1CC(F)(F)C1` [Example E-34, (2R)-3-(1′-{3-chloro-4-[(3,3-difluoroazetidin-1-yl)carbonyl]phenyl}-4,4′-bipiperidin-1-yl)-1,1,1-trifluoro-3-oxo-2-phenylpropan-2-ol], in assay [1], the “LXR alpha IP (nM)” value is “NO IP” and the Emax worked out at 28%. Further, in assay [2], the pEC50 was 6.35. Besides, in assay [2] (setting [3]), the Emax came out at 83%.

Consider `CC(C)C(O)(C(=O)N1CCC(C2CCN(c3ccc(C(=O)N(C)C)c(Cl)n3)CC2)CC1)C(C)C` [Example B-2, 2-chloro-6-{1′-[2-hydroxy-3-methyl-2-(1-methylethyl)butanoyl]-4,4′-bipiperidin-1-yl}-N,N-dimethylpyridine-3-carboxamide], for which the pEC50 is 5.77 in assay [1] and 7.24 in assay [2]. Also, the Emax was found to be 47% in assay [1] and 123% in assay [2] (setting [3]).

Consider `CCC(F)(C(=O)N1CCC(C2CCN(c3ccc(C(=O)N(C)C)c(Cl)c3)CC2)CC1)c1ccccc1` (stereo not shown) [Example A-61, 2-chloro-4-[1′-(2-fluoro-2-phenylbutanoyl)-4,4′-bipiperidin-1-yl]-N,N-dimethylbenzamide], for which the pEC50 in assay [1] was 6.05; in assay [2], 7.25. The Emax was determined as 53% in assay [1] and 115% in assay [2] (setting [3]).

As to `CC(C)C(O)(C(=O)N1CCC(C2CCN(c3ccc(C(=O)N(C)C)cc3Cl)CC2)CC1)C(F)(F)F` [Example D-3, 3-chloro-4-{1′-[2-hydroxy-3-methyl-2-(trifluoromethyl)butanoyl]-4,4′-bipiperidin-1-yl}-N,N-dimethylbenzamide], the pEC50 was 5.80 in assay [1] and 6.56 in assay [2]. Besides, the Emax turned out to be 67% in assay [1] and 118% in assay [2] (setting [3]).

On to `CC1CCCN1C(=O)c1ccc(N2CCC(C3CCN(C(=O)[C@](O)(c4ccccc4)C(F)(F)F)CC3)CC2)cc1Cl` (stereo partly drawn) [Example E-25, (2R)-3-(1′-{3-chloro-4-[(2-methylpyrrolidin-1-yl)carbonyl]phenyl}-4,4′-bipiperidin-1-yl)-1,1,1-trifluoro-3-oxo-2-phenylpropan-2-ol], for which the pEC50 in assay [1] is 6.11; in assay [2], 6.48. The figures for the Emax in assay [1] and in assay [2] (setting [3]) were 15% and 88%, respectively.

`CS(=O)(=O)c1ccc(N2CCC(C3CCN(C(=O)[C@](O)(c4ccccc4)C(F)(F)F)CC3)CC2)cc1Cl` [Example D-7, (2R)-3-{1′-[3-chloro-4-(methylsulfonyl)phenyl]-4,4′-bipiperidin-1-yl}-1,1,1-trifluoro-3-oxo-2-phenylpropan-2-ol]: the pEC50 in assay [1] is 6.38; in assay [2], 6.74. For the same compound, the Emax was found to be 20% in assay [1] and 82% in assay [2] (setting [3]).

As for `CN(C)C(=O)c1ccc(N2CCC(C3CCN(C(=O)[C@@](O)(c4ccccc4)C(F)(F)C(F)(F)F)CC3)CC2)nc1Cl` (single isomer, unassigned) [Example B-17], the figures for the pEC50 in assay [1] and in assay [2] were 6.07 and 7.52, respectively. Besides, the results for the Emax in assay [1] and in assay [2] (setting [3]) were 39% and 130%, respectively.

As for `CC(C)CC(O)(C(=O)N1CCC(C2CCN(c3ccc(C(=O)N(C)C)c(Cl)c3)CC2)CC1)C(F)(F)F` (stereo not shown) [Example A-5, 2-chloro-4-{1′-[2-hydroxy-4-methyl-2-(trifluoromethyl)pentanoyl]-4,4′-bipiperidin-1-yl}-N,N-dimethylbenzamide], in assay [1], the pEC50 is 6.06 and the Emax came out at 55%. In addition, the pEC50 in assay [2] is 7.29. In assay [2] (setting [3]), the “LXR beta act @ max dose (%)” value is reported as 113%.

With `CN(C)C(=O)c1ccc(N2CCC(C3CCN(C(=O)C4(c5ccccc5F)CCCC4)CC3)CC2)cc1Cl` [Example A-45, 2-chloro-4-(1′-{[1-(2-fluorophenyl)cyclopentyl]carbonyl}-4,4′-bipiperidin-1-yl)-N,N-dimethylbenzamide], the pEC50 in assay [1] is 6.24; in assay [2], 7.96. Moreover, the Emax in assay [1] was 53%; in assay [2] (setting [3]) it was 108%.

Turning to `CC(C)(C)OC(=O)NC1CN(C(=O)c2ccc(N3CCC(C4CCN(C(=O)OC(C)(C)C)CC4)CC3)cc2Cl)C1` [Example E-68, tert-butyl 1′-[4-({3-[(tert-butoxycarbonyl)amino]azetidin-1-yl}carbonyl)-3-chlorophenyl]-4,4′-bipiperidine-1-carboxylate], the figures for the pEC50 in assay [1] and in assay [2] were 6.44 and 7.54, respectively. Also, the Emax worked out at 64% in assay [1] and 92% in assay [2] (setting [3]).

For the compound `CN(C)C(=O)c1ccc(N2CCC(C3CCN(C(=O)OCc4c(Cl)cccc4Cl)CC3)CC2)cc1Cl` [Example A-108, 2,6-dichlorobenzyl 1′-[3-chloro-4-(dimethylcarbamoyl)phenyl]-4,4′-bipiperidine-1-carboxylate], the pEC50 in assay [1] was 6.28; in assay [2], 8.10. Moreover, the Emax in assay [1] amounted to 74%; in assay [2] (setting [3]), 131%.

For `CN(C)C(=O)c1ccc(N2CCC(C3CCN(C(=O)C(O)(C4CCC4)C(F)(F)F)CC3)CC2)cc1Cl` (stereo not shown) [Example A-10, 2-chloro-4-[1′-(2-cyclobutyl-3,3,3-trifluoro-2-hydroxypropanoyl)-4,4′-bipiperidin-1-yl]-N,N-dimethylbenzamide], the pEC50 in assay [1] was 6.12; in assay [2], 7.52. Further, the Emax in assay [1] was found to be 59%; in assay [2] (setting [3]), 109%.

Turning to `C=CCC(O)(C(=O)N1CCC(C2CCN(c3ccc(C(=O)N(C)C)c(Cl)c3)CC2)CC1)C(F)(F)F` (stereo not shown) [Example A-57, 2-chloro-4-{1′-[2-hydroxy-2-(trifluoromethyl)pent-4-enoyl]-4,4′-bipiperidin-1-yl}-N,N-dimethylbenzamide], the pEC50 in assay [1] is 5.32; in assay [2], 6.51. Further, the Emax in assay [1] amounted to 58%; in assay [2] (setting [3]), 112%.

With `O=C(c1ccc(N2CCC(C3CCN(C(=O)[C@](O)(c4ccccc4)C(F)(F)F)CC3)CC2)cc1Cl)N1CCC1CO` (stereo partly drawn) [Example E-46, (2R)-3-[1′-(3-chloro-4-{[2-(hydroxymethyl)azetidin-1-yl]carbonyl}phenyl)-4,4′-bipiperidin-1-yl]-1,1,1-trifluoro-3-oxo-2-phenylpropan-2-ol], the pEC50 in assay [1] is 5.65; in assay [2], 6.40. For the same compound, the Emax in assay [1] is 27%; in assay [2] (setting [3]) it was 55%.

On to `CCC1CCN(C(=O)c2ccc(N3CCC(C4CCN(C(=O)[C@](O)(c5ccccc5)C(F)(F)F)CC4)CC3)cc2Cl)C1` (stereo partly drawn) [Example E-29, (2R)-3-(1′-{3-chloro-4-[(3-ethylpyrrolidin-1-yl)carbonyl]phenyl}-4,4′-bipiperidin-1-yl)-1,1,1-trifluoro-3-oxo-2-phenylpropan-2-ol], for which, in assay [1], the “LXR alpha IP (nM)” value is recorded as “NO IP” and the Emax came to 13%. Further, the pEC50 in assay [2] is 6.42. Moreover, the Emax in assay [2] (setting [3]) stood at 63%.

Turning to `CN(C)C(=O)c1c(Cl)cc(N2CCC(C3CCN(C(=O)[C@](O)(c4ccccc4)C(F)(F)F)CC3)CC2)cc1Cl` [Example A-33, 2,6-dichloro-N,N-dimethyl-4-{1′-[(2R)-3,3,3-trifluoro-2-hydroxy-2-phenylpropanoyl]-4,4′-bipiperidin-1-yl}benzamide], the values for the pEC50 in assay [1] and in assay [2] were 6.32 and 7.32, respectively. Further, the Emax in assay [1] is 25%; in assay [2] (setting [3]), 86%.
